Data on 9 compounds can be found in patent publication US6559177B2, “5, 11-Dioxa-benzo[b]fluoren-10-one and 5-oxa-11-thia-benzo[b]fluoren-10-ones as estrogenic agents” (Wyeth, priority 2001, dated 2003).

Where two headings read alike, the source gives them in different places. Bounds are passed on as bounds.

For one experiment, the target named is T1, human ERα (Homo sapiens, UniProt P03372).
T1 construct: made in house; host or cells: E. coli (crude lysate)
T1 sequence (P03372 311-547 limits assumed): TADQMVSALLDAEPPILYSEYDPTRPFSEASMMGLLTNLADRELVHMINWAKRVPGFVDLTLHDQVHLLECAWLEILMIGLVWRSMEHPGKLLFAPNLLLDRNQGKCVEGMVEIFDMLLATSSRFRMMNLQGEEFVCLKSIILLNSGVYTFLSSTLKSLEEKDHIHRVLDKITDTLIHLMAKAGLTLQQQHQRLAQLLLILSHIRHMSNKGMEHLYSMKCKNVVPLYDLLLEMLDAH
Description: Competition with [3H]-17β-estradiol for binding to ERα ligand binding domain. Particulars: E. coli lysate expressing ER ligand binding domains (D,E,&F); 2 nM [3H]-17β-estradiol; 5-15 hours at room temperature. The procedure: (§1) This test procedure provides the methodology for one to determine whether a particular compound binds to the estrogen receptor (and is therefore “estrogenic”) and whether there is selectivity for ERα or ERβ. […] The procedure used is briefly described below. A crude lysate of E. coli expressing the estrogen receptor ligand binding domains (D,E, & F) of human ERα or ERβ was prepared. Both receptors and compounds were diluted in 1× Dulbecco's PBS (DPBS) supplemented with 1 mM EDTA. […] After between 5 and 15 hours at room temperature, the plates were washed with DPBS/1 mM EDTA and bound radioactivity determined by liquid scintillation counting.

In the next experiment the target is T2, human ERβ (Homo sapiens, UniProt Q92731).
T2 construct: made in house; host or cells: E. coli (crude lysate)
T2 sequence (Q92731 264-498 limits assumed): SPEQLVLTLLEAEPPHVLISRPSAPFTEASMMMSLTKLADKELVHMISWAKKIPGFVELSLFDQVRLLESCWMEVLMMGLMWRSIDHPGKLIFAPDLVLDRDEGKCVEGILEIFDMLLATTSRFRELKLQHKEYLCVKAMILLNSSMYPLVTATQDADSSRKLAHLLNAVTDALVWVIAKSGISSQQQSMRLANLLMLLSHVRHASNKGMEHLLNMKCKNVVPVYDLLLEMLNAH
The experiment in a line: Competition with [3H]-17β-estradiol for binding to ERβ ligand binding domain. The procedure: as §1

Setting [1] is: E. coli lysate expressing ER ligand binding domains (D,E,&F); 2 nM [3H]-17β-estradiol; 5-15 hours at room temperature; read-out: ERβ IC50.
Where [2] appears, read: read-out: ERβ IC50; E. coli lysate expressing ER ligand binding domains (D,E,&F); 2 nM [3H]-17β-estradiol; 5-15 hours at room temperature.

By IC50 is commonly meant the concentration at which inhibition is half-maximal. As to `O=c1c2cc(O)ccc2oc2c1oc1cc(O)ccc12` [2,8-Dihydroxy-5,11-dioxa[b]fluoren-10-one], the IC50 came to 1500 nM on human ERα and 192 nM at human ERβ (setting [1]).
For `O=c1c2sc3ccccc3c2oc2cc(O)cc(O)c12` [7,9-Dihydroxy-5-oxa-11-thia-benzo[b]fluoren-10-one], in that order: 3670 nM and 760 nM.
Turning to `O=c1c2oc3ccccc3c2oc2cc(O)cc(O)c12` [7,9-Dihydroxy-5,11-dioxa-benzo[b]fluoren-10-one], the IC50 at human ERβ (setting [2]) stood at 3190 nM.
On to `O=c1c2ccc(O)cc2oc2c1oc1cc(O)ccc12` [2,7-Dihydroxy-5,11-dioxa-benzo[b]fluoren-10-one], for which the IC50 turned out to be 550 nM at human ERα and 32 nM on human ERβ (setting [1]).
For the compound `O=c1c2cc(O)ccc2oc2c1oc1ccc(O)cc12` [3,8-Dihydroxy-5,11-dioxa[b]fluoren-10-one], the IC50 on human ERα is 188 nM; on human ERβ (setting [1]) it was 44 nM.
As for `O=c1c2oc3ccc(O)cc3c2oc2cc(O)cc(O)c12` [3,7,9-Trihydroxy-5,11-dioxa-benzo[b]fluoren-10-one], the IC50 at human ERα turned out to be 2950 nM; on human ERβ (setting [1]), 70 nM.
The corresponding values for `O=c1c2ccc(O)cc2oc2c1oc1c3ccccc3ccc21` [9-Hydroxy-7,13-dioxa-dibenzo[a,h]fluoren-12-one] are more than 5000 nM and 2710 nM.
Turning to `O=c1c2ccc(O)cc2oc2c1sc1ccccc12` [7-Hydroxy-5-oxa-11-thia-benzo[b]fluoren-10-one], on human ERβ (setting [2]), the IC50 is 2930 nM.
In the case of `O=c1c2ccc(O)cc2oc2c1oc1ccc(O)cc12` [3,7-Dihydroxy-5,11-dioxa[b]fluoren-10-one], at human ERβ (setting [1]), the IC50 came out at 850 nM.
